From US20230113037A1 (Bayer Aktiengesellschaft, priority 2019, published 2023)

Experiments:
AHR [1] = target: T1, AHR (Homo sapiens, UniProt P35869); test: In vitro assay 1: antagonism in human cell line (AHR transactivation, firefly luciferase reporter, kynurenic acid prestimulated); type: cell-based; details: AHR Antagonism Human IC50 [M]
T1 construct: U87 MG glioblastoma cells (ATCC #HTB-14) endogenously expressing AHR; endogenous in cells; host or cells: U87 MG glioblastoma cells (ATCC #HTB-14)
T1 sequence (P35869 11-848): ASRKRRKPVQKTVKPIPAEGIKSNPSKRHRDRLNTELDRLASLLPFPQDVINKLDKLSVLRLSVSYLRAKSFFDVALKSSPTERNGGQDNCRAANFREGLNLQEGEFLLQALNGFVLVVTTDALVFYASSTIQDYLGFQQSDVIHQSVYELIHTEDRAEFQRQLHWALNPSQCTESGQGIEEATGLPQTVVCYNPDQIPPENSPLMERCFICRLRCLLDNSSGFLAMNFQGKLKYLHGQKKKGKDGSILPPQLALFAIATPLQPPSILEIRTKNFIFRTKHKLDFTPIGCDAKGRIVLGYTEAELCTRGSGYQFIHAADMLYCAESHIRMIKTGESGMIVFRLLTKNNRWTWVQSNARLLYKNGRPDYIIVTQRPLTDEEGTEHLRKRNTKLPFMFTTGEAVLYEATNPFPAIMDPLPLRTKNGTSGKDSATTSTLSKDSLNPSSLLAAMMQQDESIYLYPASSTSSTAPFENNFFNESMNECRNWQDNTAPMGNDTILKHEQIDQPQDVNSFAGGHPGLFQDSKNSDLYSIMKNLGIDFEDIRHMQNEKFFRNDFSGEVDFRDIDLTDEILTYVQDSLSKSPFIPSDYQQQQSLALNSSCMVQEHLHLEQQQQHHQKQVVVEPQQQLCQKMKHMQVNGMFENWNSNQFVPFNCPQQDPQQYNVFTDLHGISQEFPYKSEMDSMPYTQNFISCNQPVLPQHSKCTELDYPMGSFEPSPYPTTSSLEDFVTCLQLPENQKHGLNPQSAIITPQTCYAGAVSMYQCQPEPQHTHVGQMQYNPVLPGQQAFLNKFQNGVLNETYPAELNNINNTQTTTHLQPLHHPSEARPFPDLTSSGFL
Outline: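 Antagonism is measured against kynurenic acid prestimulation in U87 MG glioblastoma cells carrying stable DRE-luciferase and Renilla reporters. Positive inhibition control: 150 μM kynurenic acid with 5 μM staurosporine. Values are normalized to controls; repeats are averaged or given as medians.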

AHR [2] = target: T2, AHR (Mus musculus, UniProt P30561); test: In vitro assay 3: antagonism in mouse cell line (AHR transactivation, firefly luciferase reporter, kynurenic acid prestimulated); type: cell-based; details: mouse Hepa 1c1c7 cells, 200 μM kynurenic acid, 20 hours, read-out: AHR Antagonism Mouse IC50
T2 sequence (P30561 1-848 P471L/N533S/M589L): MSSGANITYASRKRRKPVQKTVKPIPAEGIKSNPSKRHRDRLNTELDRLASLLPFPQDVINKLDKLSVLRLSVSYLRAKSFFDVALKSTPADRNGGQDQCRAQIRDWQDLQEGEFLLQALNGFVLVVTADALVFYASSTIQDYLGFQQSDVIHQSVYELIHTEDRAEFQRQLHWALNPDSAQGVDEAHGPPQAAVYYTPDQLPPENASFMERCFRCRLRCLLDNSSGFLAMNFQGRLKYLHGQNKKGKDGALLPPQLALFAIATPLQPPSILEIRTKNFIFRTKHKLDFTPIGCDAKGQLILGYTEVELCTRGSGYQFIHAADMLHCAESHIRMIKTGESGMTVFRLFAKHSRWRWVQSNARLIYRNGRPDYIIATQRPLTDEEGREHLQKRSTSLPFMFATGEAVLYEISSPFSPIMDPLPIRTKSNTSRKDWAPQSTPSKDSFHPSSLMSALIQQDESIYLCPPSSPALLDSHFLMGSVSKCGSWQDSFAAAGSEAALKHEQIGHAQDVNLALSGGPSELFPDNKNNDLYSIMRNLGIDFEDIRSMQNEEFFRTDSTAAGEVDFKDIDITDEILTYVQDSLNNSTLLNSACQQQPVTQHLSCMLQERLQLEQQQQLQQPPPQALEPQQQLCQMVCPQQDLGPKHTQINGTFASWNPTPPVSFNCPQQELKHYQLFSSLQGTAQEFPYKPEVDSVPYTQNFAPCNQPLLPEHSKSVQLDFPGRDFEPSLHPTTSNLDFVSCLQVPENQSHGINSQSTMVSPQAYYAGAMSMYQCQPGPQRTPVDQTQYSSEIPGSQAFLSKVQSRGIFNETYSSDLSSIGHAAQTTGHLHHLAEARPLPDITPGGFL
Outline: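 Luminescence from an AHR-dependent DRE-luciferase reporter, stably integrated in mouse cells, quantifies blockade of kynurenic acid-driven activation. Unstimulated cells mark maximal inhibition; normalization uses both control types, and multiply tested compounds carry mean or median values.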

Row | SMILES | IC50 (AHR [1]) [M] | IC50 (AHR [2]) [nM]
1 | CC(C)c1cccc2c1nc(N[C@@H]1CCCCNC1=O)n1nc(-c3cccc(F)c3)nc21 [Example 394, (3R)-3-{[2-(3-Fluorophenyl)-7-(propan-2-yl)[1,2,4]triazolo[1,5-c]quinazolin-5-yl]amino}azepan-2-one] | 1.16e-08 | 30.9
2 | COc1ccc(-c2nc3c4ccc(C(C)C)cc4nc(N[C@@H]4CCCCNC4=O)n3n2)cc1 [Example 395, (3R)-3-{[2-(4-Methoxyphenyl)-8-(propan-2-yl)[1,2,4]triazolo[1,5-c]quinazolin-5-yl]amino}azepan-2-one] | 3e-07 | 2410
3 | COc1ccc(-c2nc3c4c(C5COC5)cccc4nc(N[C@@H]4CCCCNC4=O)n3n2)cc1 [Example 396, (3R)-3-{[2-(4-methoxyphenyl)-10-(oxetan-3-yl)[1,2,4]triazolo[1,5-c]quinazolin-5-yl]amino}azepan-2-one] | 1.12e-08 | 21.6
4 | COc1ccc(-c2nc3c4c(C5CCOCC5)cccc4nc(N[C@@H]4CCCCNC4=O)n3n2)cc1 [Example 397, (3R)-3-{[2-(4-methoxyphenyl)-10-(oxan-4-yl)[1,2,4]triazolo[1,5-c]quinazolin-5-yl]amino}azepan-2-one] | 1.83e-08 | 37.6
5 | COc1ccc(-c2nc3c4cccc(C5(C(F)(F)F)CC5)c4nc(N[C@@H]4CCCCNC4=O)n3n2)cc1 [Example 398, (3R)-3-({2-(4-methoxyphenyl)-7-[1-(trifluoromethyl)cyclopropyl][1,2,4]triazolo[1,5-c]quinazolin-5-yl}amino)azepan-2-one] | 2.24e-08 | 135
6 | COc1ccc(-c2nc3c4cccc(C5(C)CC5)c4nc(N[C@@H]4CCCCNC4=O)n3n2)cc1 [Example 399, (3R)-3-{[2-(4-methoxyphenyl)-7-(1-methylcyclopropyl)[1,2,4]triazolo[1,5-c]quinazolin-5-yl]amino}azepan-2-one] | 1.85e-08 | 55.7
7 | COc1ccc(-c2nc3c4ccc(C#N)cc4nc(N[C@@H]4CCCCNC4=O)n3n2)cc1 [Example 400, 2-(4-Methoxyphenyl)-5-{[(3R)-2-oxoazepan-3-yl]amino}[1,2,4]triazolo[1,5-c]quinazoline-8-carbonitrile] | 4.16e-08 | 119
8 | COc1ccc(-c2nc3c4cc(C#N)ccc4nc(N[C@@H]4CCCCNC4=O)n3n2)cc1 [Example 401, 2-(4-Methoxyphenyl)-5-{[(3R)-2-oxoazepan-3-yl]amino}[1,2,4]triazolo[1,5-c]quinazoline-9-carbonitrile] | 4.44e-09 | 8.7
9 | N#Cc1cccc2c1nc(N[C@@H]1CCCCNC1=O)n1nc(-c3ccc(F)cc3)nc21 [Example 402, 2-(4-Fluorophenyl)-5-{[(3R)-2-oxoazepan-3-yl]amino}[1,2,4]triazolo[1,5-c]quinazoline-7-carbonitrile] | 8.32e-09 | 26.1
10 | Cn1cc(-c2nc3c4cccc(C#N)c4nc(N[C@@H]4CCCCNC4=O)n3n2)cn1 [Example 403, 2-(1-Methyl-1H-pyrazol-4-yl)-5-{[(3R)-2-oxoazepan-3-yl]amino}[1,2,4]triazolo[1,5-c]quinazoline-7-carbonitrile] | 3.03e-08 | 95.1
11 | Cc1ccc2nc(N[C@@H]3CCCCNC3=O)n3nc(-c4cnn(C)c4)nc3c2c1C(F)F [Example 404, (3R)-3-{[10-(difluoromethyl)-9-methyl-2-(1-methyl-1H-pyrazol-4-yl)[1,2,4]triazolo[1,5-c]quinazolin-5-yl]amino}azepan-2-one] | 3.39e-06 | 2760
12 | Cc1cc2c(cc1C(F)F)nc(N[C@@H]1CCCCNC1=O)n1nc(-c3cnn(C)c3)nc21 [Example 405, (3R)-3-{[8-(difluoromethyl)-9-methyl-2-(1-methyl-1H-pyrazol-4-yl)[1,2,4]triazolo[1,5-c]quinazolin-5-yl]amino}azepan-2-one] | 3.41e-07 | 792
13 | Cc1cc(C(F)F)c2nc(N[C@@H]3CCCCNC3=O)n3nc(-c4cnn(C)c4)nc3c2c1 [Example 406, (3R)-3-{[7-(difluoromethyl)-9-methyl-2-(1-methyl-1H-pyrazol-4-yl)[1,2,4]triazolo[1,5-c]quinazolin-5-yl]amino}azepan-2-one] | 1.01e-07 | 7750
14 | Cc1ccc2nc(N[C@@H]3CCCCNC3=O)n3nc(-c4cn(C)nc4C(F)(F)F)nc3c2c1 [Example 407, (3R)-3-({9-methyl-2-[1-methyl-3-(trifluoromethyl)-1H-pyrazol-4-yl][1,2,4]triazolo[1,5-c]quinazolin-5-yl}amino)azepan-2-one] | 3.1e-07 | 246
15 | CN(C)c1cccc(-c2nc3c4ccccc4nc(N[C@@H]4CNCCNC4=O)n3n2)c1 [Example 408, (6R)-6-({2-[3-(dimethylamino)phenyl][1,2,4]triazolo[1,5-c]quinazolin-5-yl}amino)-1,4-diazepan-5-one] | 1.85e-07 | 13.6
16 | COc1ccc(-c2nc3c4ccccc4nc(N[C@@H]4CNCCNC4=O)n3n2)cc1OC [Example 409, (6R)-6-{[2-(3,4-dimethoxyphenyl)[1,2,4]triazolo[1,5-c]quinazolin-5-yl]amino}-1,4-diazepan-5-one] | 6.98e-08 | 17.1
17 | COc1ccc(-c2nc3c4ccccc4nc(N[C@@H]4CNCCNC4=O)n3n2)c(C)c1 [Example 410, (6R)-6-{[2-(4-methoxy-2-methylphenyl)[1,2,4]triazolo[1,5-c]quinazolin-5-yl]amino}-1,4-diazepan-5-one] | 1.53e-08 | 4.73
18 | O=C1NCCNC[C@H]1Nc1nc2ccccc2c2nc(-c3ccc(OC4CC4)cc3)nn12 [Example 411, (6R)-6-({2-[4-(cyclopropyloxy)phenyl][1,2,4]triazolo[1,5-c]quinazolin-5-yl}amino)-1,4-diazepan-5-one] | 1.77e-07 | 11.2
19 | O=C1NCCNC[C@H]1Nc1nc2ccccc2c2nc(-c3ccc(Br)o3)nn12 [Example 412, (6R)-6-{[2-(5-bromofuran-2-yl)[1,2,4]triazolo[1,5-c]quinazolin-5-yl]amino}-1,4-diazepan-5-one] | 8.37e-08 | 236
20 | Nc1cccc(-c2nc3c4ccccc4nc(N[C@@H]4CNCCNC4=O)n3n2)c1 [Example 413, (6R)-6-{[2-(3-aminophenyl)[1,2,4]triazolo[1,5-c]quinazolin-5-yl]amino}-1,4-diazepan-5-one] | 8.94e-08 | 62.1
21 | CC(C)Oc1ccc(-c2nc3c4ccccc4nc(N[C@@H]4CNCCNC4=O)n3n2)cc1 [Example 415, (6R)-6-[(2-{4-[(propan-2-yl)oxy]phenyl}[1,2,4]triazolo[1,5-c]quinazolin-5-yl)amino]-1,4-diazepan-5-one] | 1.85e-08 | 6.47
22 | O=C1NCCNC[C@H]1Nc1nc2ccccc2c2nc(-c3cnn(CC4CC4)c3)nn12 [Example 416, (6R)-6-({2-[1-(cyclopropylmethyl)-1H-pyrazol-4-yl][1,2,4]triazolo[1,5-c]quinazolin-5-yl}amino)-1,4-diazepan-5-one] | 2.1e-06 | 354
